From ChEMBL document CHEMBL1201862, “PubChem BioAssay data set” (2004)
Active and inactive are the calls of the source.

Columns and labels:
[1] = target: Alkaline phosphatase, placental type (Homo sapiens, UniProt P05187); test: human placental alkaline phosphatase inhibition – biochemical, luminescence, confirmation (AID 1512); type: functional
[2] = target: Glyceraldehyde-3-phosphate dehydrogenase (Homo sapiens, UniProt P04406)
[3] = target: T1, Alkaline phosphatase, tissue-nonspecific isozyme (Homo sapiens, UniProt P05186); test: potency against alkaline phosphatase TNAP – biochemical, luminescent, dose response, SAR follow-up (AID 1056)
T1 sequence (P05186 whole entry): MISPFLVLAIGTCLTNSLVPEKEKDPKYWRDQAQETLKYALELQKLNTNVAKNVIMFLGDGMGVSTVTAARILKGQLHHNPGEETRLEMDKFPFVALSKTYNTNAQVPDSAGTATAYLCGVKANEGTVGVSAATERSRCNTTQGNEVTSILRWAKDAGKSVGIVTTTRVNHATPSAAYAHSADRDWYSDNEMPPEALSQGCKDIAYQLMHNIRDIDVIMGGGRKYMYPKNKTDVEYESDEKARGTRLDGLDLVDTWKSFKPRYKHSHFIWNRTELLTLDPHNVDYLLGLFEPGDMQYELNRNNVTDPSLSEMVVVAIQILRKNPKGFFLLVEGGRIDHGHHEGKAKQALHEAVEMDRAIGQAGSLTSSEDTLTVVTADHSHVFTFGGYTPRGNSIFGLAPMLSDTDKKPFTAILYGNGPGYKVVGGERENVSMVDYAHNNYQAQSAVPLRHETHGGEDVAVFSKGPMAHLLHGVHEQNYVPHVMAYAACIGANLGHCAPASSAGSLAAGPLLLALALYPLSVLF

[4] = HEK-293T viability loss after treatment – luminescence, T-cell screen hits, cytotoxicity control for TCR NF-kB inhibitor project, dose response (AID 489026); type: functional, cell-based;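 also: cells exposed to compound about 14 hours before the viability readout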
[5] = target: T2, E3 ubiquitin-protein ligase XIAP (Homo sapiens, UniProt P98170); test: Counter Screen using XIAP-Bir3 for Chemical Antagonists of Bir1/2 domains of IAP-family anti-apoptotic proteins. [Related pubchem assays (depositor defined):AID1018, AID1449, AID1514, AID1638, AID1749, AID1750, AID488957, AID488963]
T2 sequence (P98170 whole entry): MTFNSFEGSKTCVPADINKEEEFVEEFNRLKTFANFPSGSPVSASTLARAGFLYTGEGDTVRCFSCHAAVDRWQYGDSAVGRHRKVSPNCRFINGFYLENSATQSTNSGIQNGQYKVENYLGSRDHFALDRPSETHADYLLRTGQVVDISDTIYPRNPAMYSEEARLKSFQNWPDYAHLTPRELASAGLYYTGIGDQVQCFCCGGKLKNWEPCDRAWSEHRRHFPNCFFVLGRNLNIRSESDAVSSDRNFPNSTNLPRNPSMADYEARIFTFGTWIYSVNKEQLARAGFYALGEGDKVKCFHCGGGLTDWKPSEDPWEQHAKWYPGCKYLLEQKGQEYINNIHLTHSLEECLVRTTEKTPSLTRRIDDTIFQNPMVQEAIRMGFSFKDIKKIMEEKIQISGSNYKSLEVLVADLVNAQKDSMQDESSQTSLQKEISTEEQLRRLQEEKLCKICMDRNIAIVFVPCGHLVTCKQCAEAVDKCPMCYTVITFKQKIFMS

[6] = target: T2, E3 ubiquitin-protein ligase XIAP; test: small molecules displacing peptide from XIAP – biochemical, IAP family, fluorescence polarization (AID 1018); type: functional
[7] = Fluorescence-based cell-based high throughput dose response assay for inhibitors of the interaction of nucleotide-binding oligomerization domain containing 2 (NOD2) and the receptor-interacting serine-threonine kinase 2 (RIPK2).; type: functional; details: Homo sapiens
BJ [8] = test: BJ-TERT fibroblast viability loss – cell-based, RAS-independent, luminescence, dose response (AID 1933); type: functional; details: Homo sapiens
[9] = NIH3T3 cell viability loss – ATP luminescence, mouse fibroblasts, counter-screen, dose response (AID 2010); type: functional, cell-based;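 also: cells exposed to compound for about 90 hours before reading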
[10] = target: T3, Replicative DNA helicase DnaB (Mycobacterium tuberculosis, UniProt P9WMR3); test: DnaB intein splicing inhibitors, dose response, biochemical, cell-free fluorescence (AID 449749); type: functional
T3 sequence (P9WMR3 whole entry): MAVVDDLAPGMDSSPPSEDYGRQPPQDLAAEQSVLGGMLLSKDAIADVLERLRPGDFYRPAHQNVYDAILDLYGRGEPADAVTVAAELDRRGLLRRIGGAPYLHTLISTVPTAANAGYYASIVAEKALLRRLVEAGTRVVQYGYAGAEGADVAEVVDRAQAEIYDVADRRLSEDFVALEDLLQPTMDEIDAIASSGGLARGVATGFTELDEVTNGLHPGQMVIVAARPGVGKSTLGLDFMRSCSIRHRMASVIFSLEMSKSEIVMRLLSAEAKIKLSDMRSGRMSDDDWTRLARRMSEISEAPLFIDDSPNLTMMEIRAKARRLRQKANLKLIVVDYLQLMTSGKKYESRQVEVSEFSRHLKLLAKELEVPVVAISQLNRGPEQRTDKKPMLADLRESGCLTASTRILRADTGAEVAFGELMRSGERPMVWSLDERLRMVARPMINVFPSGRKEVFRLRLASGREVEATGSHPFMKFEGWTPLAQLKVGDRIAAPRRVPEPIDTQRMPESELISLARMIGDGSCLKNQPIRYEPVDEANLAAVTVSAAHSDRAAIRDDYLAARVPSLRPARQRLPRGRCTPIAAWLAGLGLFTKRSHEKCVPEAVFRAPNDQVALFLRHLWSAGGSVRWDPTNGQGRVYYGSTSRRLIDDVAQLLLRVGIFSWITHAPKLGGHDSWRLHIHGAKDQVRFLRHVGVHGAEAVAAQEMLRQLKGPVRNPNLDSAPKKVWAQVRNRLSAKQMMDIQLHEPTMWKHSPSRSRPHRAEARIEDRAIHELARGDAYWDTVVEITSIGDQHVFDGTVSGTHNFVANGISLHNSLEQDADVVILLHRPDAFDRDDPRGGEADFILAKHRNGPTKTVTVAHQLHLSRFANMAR

Integrin alpha-4 = Integrin alpha-4 (Homo sapiens, UniProt P13612); test: allosteric modulators of alpha4 integrin VLA-4 – cell-based, LIBS antibody binding, flow cytometry, SAR follow-up (AID 488791); type: functional
Chain of Integrin alpha-4 (P13612 whole entry): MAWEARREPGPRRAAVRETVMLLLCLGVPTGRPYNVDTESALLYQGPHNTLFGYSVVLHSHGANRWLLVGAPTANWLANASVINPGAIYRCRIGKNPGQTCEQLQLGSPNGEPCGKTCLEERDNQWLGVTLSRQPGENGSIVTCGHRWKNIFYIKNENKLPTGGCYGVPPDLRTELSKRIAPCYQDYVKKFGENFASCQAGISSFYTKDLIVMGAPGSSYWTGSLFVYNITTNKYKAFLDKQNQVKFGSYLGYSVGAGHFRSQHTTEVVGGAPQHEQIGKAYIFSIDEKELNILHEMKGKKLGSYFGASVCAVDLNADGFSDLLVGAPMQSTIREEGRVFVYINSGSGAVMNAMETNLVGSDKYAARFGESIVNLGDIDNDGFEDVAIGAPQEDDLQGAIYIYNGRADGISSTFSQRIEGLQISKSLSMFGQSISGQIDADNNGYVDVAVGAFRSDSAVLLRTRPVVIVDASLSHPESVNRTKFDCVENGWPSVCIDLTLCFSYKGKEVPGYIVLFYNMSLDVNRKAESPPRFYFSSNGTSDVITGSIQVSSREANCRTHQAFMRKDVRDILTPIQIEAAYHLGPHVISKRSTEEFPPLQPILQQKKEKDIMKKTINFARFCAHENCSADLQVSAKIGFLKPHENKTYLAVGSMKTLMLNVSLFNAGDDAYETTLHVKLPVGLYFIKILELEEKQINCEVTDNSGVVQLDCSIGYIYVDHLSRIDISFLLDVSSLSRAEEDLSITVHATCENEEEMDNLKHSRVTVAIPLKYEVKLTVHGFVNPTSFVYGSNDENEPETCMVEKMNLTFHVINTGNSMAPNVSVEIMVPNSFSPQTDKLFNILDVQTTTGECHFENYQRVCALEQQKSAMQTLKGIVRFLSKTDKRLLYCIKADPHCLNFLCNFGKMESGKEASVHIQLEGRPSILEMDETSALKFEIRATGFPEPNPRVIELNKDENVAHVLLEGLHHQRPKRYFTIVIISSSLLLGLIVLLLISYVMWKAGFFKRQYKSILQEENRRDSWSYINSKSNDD

Hexokinase HKDC1 = target: T4, Hexokinase HKDC1 (Homo sapiens, UniProt Q2TB90); test: inhibition of HKDC1 glucose phosphorylation – biochemical, W721R variant, dose response (AID 504729); type: functional
T4 sequence (Q2TB90 whole entry): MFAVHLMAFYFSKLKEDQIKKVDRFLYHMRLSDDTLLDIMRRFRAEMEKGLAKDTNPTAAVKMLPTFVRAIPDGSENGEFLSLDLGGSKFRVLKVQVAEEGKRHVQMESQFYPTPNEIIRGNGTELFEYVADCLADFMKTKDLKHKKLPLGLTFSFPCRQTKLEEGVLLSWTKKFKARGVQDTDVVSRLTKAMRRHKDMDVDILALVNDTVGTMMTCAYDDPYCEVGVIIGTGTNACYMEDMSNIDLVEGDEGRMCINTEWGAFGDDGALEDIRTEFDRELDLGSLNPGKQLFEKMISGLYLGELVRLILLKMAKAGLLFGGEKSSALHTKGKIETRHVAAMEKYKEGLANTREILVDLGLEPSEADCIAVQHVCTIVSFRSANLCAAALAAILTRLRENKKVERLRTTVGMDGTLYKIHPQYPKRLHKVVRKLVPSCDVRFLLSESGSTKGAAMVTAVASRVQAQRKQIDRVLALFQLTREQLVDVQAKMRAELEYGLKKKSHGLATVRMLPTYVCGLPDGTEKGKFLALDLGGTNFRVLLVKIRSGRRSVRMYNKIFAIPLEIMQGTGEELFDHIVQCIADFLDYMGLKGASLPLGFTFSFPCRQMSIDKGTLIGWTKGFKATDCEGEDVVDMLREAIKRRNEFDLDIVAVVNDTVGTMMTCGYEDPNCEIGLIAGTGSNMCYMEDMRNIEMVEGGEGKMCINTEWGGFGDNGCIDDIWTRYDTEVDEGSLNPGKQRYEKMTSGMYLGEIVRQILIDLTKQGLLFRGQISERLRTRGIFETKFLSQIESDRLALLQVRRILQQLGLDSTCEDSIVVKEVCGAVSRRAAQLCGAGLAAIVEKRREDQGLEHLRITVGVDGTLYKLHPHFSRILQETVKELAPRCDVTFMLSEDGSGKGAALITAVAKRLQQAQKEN

BJ [11] = test: BJ-TERT-LT-ST fibroblast viability loss – cell-based, RAS-independent, luminescence, dose response (AID 1935); type: functional; details: Homo sapiens;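 also: BJ fibroblasts immortalized with TERT plus LT and ST oncogenes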
Protein RecA = target: T5, Protein RecA (Mycobacterium tuberculosis, UniProt P9WHJ3); test: Fluorescence Cell-Free Homogeneous Dose Retest to Identify Inhibitors of RecA-Intein Splicing Activity. [Related pubchem assays (depositor defined):AID2097, AID2223, AID489010, AID492950]; type: functional
T5 sequence (P9WHJ3 whole entry): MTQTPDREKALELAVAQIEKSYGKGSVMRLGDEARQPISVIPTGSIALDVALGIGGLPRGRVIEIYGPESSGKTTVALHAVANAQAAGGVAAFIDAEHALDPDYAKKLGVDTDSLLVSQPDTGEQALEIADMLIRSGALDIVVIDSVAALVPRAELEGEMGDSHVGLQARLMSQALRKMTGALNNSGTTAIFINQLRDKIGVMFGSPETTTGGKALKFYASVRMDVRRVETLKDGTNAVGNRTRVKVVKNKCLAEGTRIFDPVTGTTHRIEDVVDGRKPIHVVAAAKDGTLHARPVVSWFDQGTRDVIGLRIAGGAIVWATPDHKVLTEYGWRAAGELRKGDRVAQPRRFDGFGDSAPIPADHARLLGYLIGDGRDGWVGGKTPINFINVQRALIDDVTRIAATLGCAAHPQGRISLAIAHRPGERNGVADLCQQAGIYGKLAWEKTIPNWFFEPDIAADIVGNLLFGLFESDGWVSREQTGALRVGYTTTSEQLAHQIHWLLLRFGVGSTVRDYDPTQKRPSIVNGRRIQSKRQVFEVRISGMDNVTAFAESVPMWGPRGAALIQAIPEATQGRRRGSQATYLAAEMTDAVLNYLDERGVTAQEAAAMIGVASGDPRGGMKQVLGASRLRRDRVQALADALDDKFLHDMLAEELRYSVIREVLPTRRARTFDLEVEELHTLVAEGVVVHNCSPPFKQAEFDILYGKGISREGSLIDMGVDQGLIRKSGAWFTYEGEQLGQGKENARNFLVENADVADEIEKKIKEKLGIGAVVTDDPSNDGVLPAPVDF

[12] = Trypanosoma cruzi growth suppression in host cells – NIH3T3 host cells, beta-gal luminescence, confirmation (AID 2044); type: functional, cell-based;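 also: intracellular parasites grown in NIH/3T3 mouse fibroblasts as host cells; luminescent beta-galactosidase reporter signal from transgenic T. cruzi replicating inside host cells; inhibitors lower the luminescence signal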
[13] = target: G-protein coupled receptor 55 (Homo sapiens, UniProt Q9Y2T6); test: selective activators of receptor GPR55 – imaging, U2OS cells, beta-arrestin-GFP redistribution, primary screen (AID 1961); type: functional
Chain of G-protein coupled receptor 55 (Q9Y2T6 whole entry): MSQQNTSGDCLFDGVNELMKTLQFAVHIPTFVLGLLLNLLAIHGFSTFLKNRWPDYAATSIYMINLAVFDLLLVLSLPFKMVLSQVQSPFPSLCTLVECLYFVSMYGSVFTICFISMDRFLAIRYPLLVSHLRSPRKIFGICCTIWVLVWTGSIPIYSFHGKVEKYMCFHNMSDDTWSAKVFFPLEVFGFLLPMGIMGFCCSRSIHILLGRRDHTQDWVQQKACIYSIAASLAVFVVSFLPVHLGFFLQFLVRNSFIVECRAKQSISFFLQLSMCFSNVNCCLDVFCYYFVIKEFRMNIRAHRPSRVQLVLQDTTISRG

[14] = target: T6, Heat shock factor protein 1 (Mus musculus, UniProt P38532); test: decrease of HSF1-responsive luciferase luminescence – cell-based, NIH3T3, dose retest, confirmation (AID 2382); type: functional;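 also: NIH3T3 fibroblasts with HSF1-driven luciferase reporter stressed by proteasome inhibitor MG132; luminescence from HSF1-driven luciferase expression after 8 hours of MG132 stress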
T6 sequence (P38532 whole entry): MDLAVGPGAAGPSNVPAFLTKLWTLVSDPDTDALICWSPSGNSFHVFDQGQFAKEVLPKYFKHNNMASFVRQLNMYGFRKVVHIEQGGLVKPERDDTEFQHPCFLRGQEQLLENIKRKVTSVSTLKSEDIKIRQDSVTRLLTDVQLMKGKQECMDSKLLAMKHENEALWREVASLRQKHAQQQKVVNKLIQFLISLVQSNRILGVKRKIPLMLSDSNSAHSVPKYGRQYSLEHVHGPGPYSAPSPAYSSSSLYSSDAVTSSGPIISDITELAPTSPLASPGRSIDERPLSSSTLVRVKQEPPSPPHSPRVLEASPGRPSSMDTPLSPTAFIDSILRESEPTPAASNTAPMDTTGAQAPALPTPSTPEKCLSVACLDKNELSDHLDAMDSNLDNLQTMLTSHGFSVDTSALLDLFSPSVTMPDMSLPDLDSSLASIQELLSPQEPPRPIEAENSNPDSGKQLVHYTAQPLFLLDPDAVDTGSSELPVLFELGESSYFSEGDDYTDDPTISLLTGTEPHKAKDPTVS

BJ [15] = test: cells; type: functional, cell-based; details: Homo sapiens
[16] = viability of HCT116 lacking mutant beta-catenin – cell-based, human colon tumor, dose response (AID 1045); type: functional;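 also: HCT116 colon tumor cells with beta catenin knocked out; cells exposed to compound for 60 hours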
[17] = DRD fibroblast viability loss – cell-based, non-viral oncogenic, luminescence, dose response (AID 1934); type: functional; details: Homo sapiens
[18] = viability of PTEN-deleted HCT116 cells – cell-based, HCT116 PTEN knockout, dose response (AID 1047); type: functional;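 also: HCT116 colon tumor cells with PTEN knocked out; cells exposed to compound for 60 hours before readout; potency for loss of cell viability measured by luminescence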
[19] = target: Tyrosine-protein phosphatase non-receptor type 7 (Homo sapiens, UniProt P35236); test: inhibition of hematopoietic tyrosine phosphatase HePTP – biochemical, set 2, SAR follow-up (AID 449736); type: functional
Chain of Tyrosine-protein phosphatase non-receptor type 7 (P35236 whole entry): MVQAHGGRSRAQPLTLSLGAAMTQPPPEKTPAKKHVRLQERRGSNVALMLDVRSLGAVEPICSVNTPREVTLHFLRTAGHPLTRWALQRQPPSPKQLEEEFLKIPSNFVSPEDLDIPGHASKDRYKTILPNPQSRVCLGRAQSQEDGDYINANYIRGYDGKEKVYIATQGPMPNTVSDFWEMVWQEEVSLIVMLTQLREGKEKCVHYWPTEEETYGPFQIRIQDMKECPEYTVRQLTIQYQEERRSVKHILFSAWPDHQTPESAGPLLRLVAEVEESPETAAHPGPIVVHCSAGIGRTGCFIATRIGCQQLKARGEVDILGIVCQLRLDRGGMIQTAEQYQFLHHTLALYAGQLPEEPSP

Chain of Glyceraldehyde-3-phosphate dehydrogenase (P04406 whole entry): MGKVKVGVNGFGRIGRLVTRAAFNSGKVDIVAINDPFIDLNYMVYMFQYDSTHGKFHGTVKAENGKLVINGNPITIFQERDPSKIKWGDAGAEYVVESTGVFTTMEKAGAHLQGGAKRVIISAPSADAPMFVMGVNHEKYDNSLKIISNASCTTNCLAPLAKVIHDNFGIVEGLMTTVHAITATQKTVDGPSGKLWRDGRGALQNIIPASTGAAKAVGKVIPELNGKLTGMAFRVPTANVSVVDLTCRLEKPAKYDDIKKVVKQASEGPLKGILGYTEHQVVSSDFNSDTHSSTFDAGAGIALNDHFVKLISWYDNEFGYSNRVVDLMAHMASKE
Chain of Alkaline phosphatase, placental type (P05187 whole entry): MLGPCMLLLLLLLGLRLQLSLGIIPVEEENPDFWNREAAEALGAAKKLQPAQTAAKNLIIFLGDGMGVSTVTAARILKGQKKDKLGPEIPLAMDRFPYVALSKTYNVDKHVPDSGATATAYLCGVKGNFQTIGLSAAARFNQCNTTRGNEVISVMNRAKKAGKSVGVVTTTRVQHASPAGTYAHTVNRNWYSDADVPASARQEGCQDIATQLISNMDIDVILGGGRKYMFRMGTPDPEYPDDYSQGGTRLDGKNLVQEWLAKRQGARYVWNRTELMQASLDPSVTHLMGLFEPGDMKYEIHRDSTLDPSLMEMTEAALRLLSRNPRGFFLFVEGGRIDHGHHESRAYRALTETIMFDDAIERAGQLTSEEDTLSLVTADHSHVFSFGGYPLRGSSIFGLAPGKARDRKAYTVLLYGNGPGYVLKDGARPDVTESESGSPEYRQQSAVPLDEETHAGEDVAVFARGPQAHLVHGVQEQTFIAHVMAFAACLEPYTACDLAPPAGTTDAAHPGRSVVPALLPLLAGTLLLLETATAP

SMILES: Cc1ccccc1OCc1nc2c3cnn(C)c3ncn2n1
- IC50 [1]: > 100 µM (inactive)
- IC50 [2]: > 100 µM (not active)
- IC50 [3]: > 100 µM (inactive)

SMILES: COc1cccc(-c2cc(=O)c3cc(NC(=O)c4ccccc4)ccc3[nH]2)c1
- IC50 [4]: > 80 µM (inactive)

SMILES: Cn1ncc(Cl)c1C(=O)N1CCN(C(=O)c2ccco2)CC1
- IC50 [5]: > 100 µM (inactive)
- IC50 [6]: > 100 µM (not active)

SMILES: O=C(NCCCN1CCOCC1)c1ccc(Br)cc1Br
- IC50 [5]: > 100 µM (inactive)
- IC50 [6]: > 100 µM (not active)

SMILES: COC(=O)[C@@H]1[C@@H](C(=O)OC)C2(c3ccccc3-c3ccccc32)N(c2ccc(Cl)cc2)N1C#N
- IC50 [7]: 1.77 µM (active)
- EC50 (BJ [8]): 2.87 µM (inconclusive)
- EC50 [9]: 6.87 µM (active)
- AC50 [10]: > 120 µM (inactive)
- EC50 (Integrin alpha-4): > 49.2 µM (inactive)
- IC50 (Hexokinase HKDC1): 20.4 µM (inactive)
- EC50 (BJ [11]): 5.02 µM (active)
- EC50 (Protein RecA): 5.38 µM (active)
- EC50 [12]: 2.24 µM (active)
- EC50 [13]: > 32 µM (inactive)
- EC50 [14]: 8.22 µM (inconclusive)
- EC50 (BJ [15]): 6.23 µM (active)
- EC50 [16]: 8.83 µM (active)
- EC50 [17]: 4.84 µM (active)
- EC50 [18]: 7.77 µM (active)

SMILES: NS(=O)(=O)c1ccc(NC(=O)N2CCN(Cc3cccnc3)CC2)cc1
- IC50 [19]: > 100 µM (inactive)

SMILES: NS(=O)(=O)c1ccc(NC(=S)Nc2ccccc2)cc1
- IC50 [19]: 25 µM (active)
